These results are taken from US20240261242A1, “METHODS OF INTRAVENOUSLY ADMINISTERING SOTALOL” (AltaThera Pharmaceuticals LLC, priority 2018, published 2024).

The structures appear in SMILES notation. Where only a bound is given, the exact number is not on record here.

The conditions of data set [1]: cited from earlier work.
Data set [2] can be described thus: example IV sotalol treatment protocols with QTc interval monitoring. It counts as in vivo, human. How it is done: An example sotalol treatment protocol for a patient experiencing AF and who is currently in normal sinus rhythm (which patient could have resumed normal sinus rhythm spontaneously, or by way of chemical cardioversion, or electrocardioversion) is described herein. The patient is admitted to a hospital or other facility capable of providing cardiac resuscitation and continuous electrocardiographic monitoring. The patient's creatinine clearance is determined to be 60-89 mL/min (mild renal impairment). The patient is connected to an electrocardiographic and an initial QTc is determined to be less than 450 ms. If the patient were to be administered multiple sequential oral doses, the physician would have selected an oral sotalol dosing regimen of 80 mg at a 12-hour interval. However, due to the patient's NPO status, the physician determines the patient should instead be administered an IV sotalol dosing regimen as a substitute for the selected oral dosing regimen. IV doses in an amount of 75 mg sotalol hydrochloride are administered to the patient at 12-hour interval as a substitute for oral dosing. It is noted that notwithstanding the patient's mild kidney impairment, no adjustment to the IV dosing amount or interval is made. That is, even though the patient's CrCl is lower than normal, neither the dose is adjusted lower nor the dosing interval increased to accommodate for the mild renal impairment. The 75 mg IV dose is administered to the patient over a period of 5 hours. The patient's QTc interval is measured, along with heart rate and blood pressure at selected times to ensure that the patient is tolerating the drug. […] Once it is determined that the patient/subject is capable of tolerating the sotalol, one or more subsequent doses of sotalol hydrochloride in an amount of 75 mg is administered to the subject at a 12-hour interval. The patient's QTc interval can continue to be monitored.
An example sotalol treatment protocol for a patient experiencing VT who is not currently in normal sinus rhythm is described herein. The patient is admitted to a hospital or other facility capable of providing cardiac resuscitation and continuous electrocardiographic monitoring. The patient's creatinine clearance is determined to be 10-29 mL/min (severe renal impairment). The patient is connected to an electrocardiographic and an initial QTc is determined to be less than 450 ms. If the patient were to be administered multiple sequential oral doses, the physician would have selected an oral sotalol dosing regimen of 120 mg at a 48-hour interval. However, the physician determines the patient should instead be administered an IV sotalol dosing regimen as a substitute for the selected oral dosing regimen. IV doses in an amount of 105 mg sotalol hydrochloride are administered to the patient at 48-hour interval as a substitute for oral dosing. The 105 mg IV dose is administered to the patient over a period of 5 hours. The patient's QTc interval is measured, along with heart rate and blood pressure at selected times to ensure that the patient is tolerating the drug. […] Once it is determined that the patient/subject is capable of tolerating the sotalol, one or more subsequent doses of sotalol hydrochloride in an amount of 105 mg is administered to the subject at a 48-hour interval. The patient's QTc interval can continue to be monitored.
An example sotalol treatment protocol for a patient with atrial flutter (AFL) and persistent atrial fibrillation who is not currently in normal sinus rhythm is described herein. The patient is admitted to a hospital or other facility capable of providing cardiac resuscitation and continuous electrocardiographic monitoring. The patient's creatinine clearance is determined to be ≥90 mL/min. The patient is connected to an electrocardiographic and an initial QTc is determined to be less than 450 ms. […]

For data set [3] the following is noted: cited from earlier work. The source holds these as a separate data set.
Where [4] appears, read: Example 2: 75 mg IV over 5 hours at 12-hour interval, CrCl 60-89 mL/min, AF patient in sinus rhythm.
Setting [5] is: Example 5: 105 mg IV over 5 hours at 48-hour interval, CrCl 10-29 mL/min, VT patient.
Setting [6] is: Example 6: 150 mg IV over 5 hours at 12-hour interval, CrCl ≥90 mL/min, AFL and persistent AF patient.
The mark [7] stands for this setting: Example 7: 112.5 mg IV over 5 hours at 12-hour interval, then escalated to 150 mg, CrCl 60-89 mL/min, PVC patient.

As to `CC(C)NCC(O)c1ccc(NS(C)(=O)=O)cc1.Cl` (centres unmarked) [sotalol hydrochloride, d,1-N-[4-[1-hydroxy-2-[(1-methylethyl)amino]ethyl]phenyl] methane-sulfonamide monohydrochloride], the “time to steady-state plasma levels and maximum QTc prolongation” value in data set [1] (oral administration, twice daily (after 5-6 doses)) is 3 days. Moreover, in data set [1] (oral, taken on an empty stomach), the bioavailable is given as roughly 100%. Also, the QTc interval in data set [2] (setting [4]), in data set [2] (setting [5]), in data set [2] (setting [6]) and in data set [2] (setting [7]) was no more than 500 ms in each case. Also, the ΔQTc entry in data set [2] (setting [4]), in data set [2] (setting [5]), in data set [2] (setting [6]) and in data set [2] (setting [7]) was “less than 20%” in each case. Moreover, in data set [3], the solubility result is “soluble in water, propylene glycol, and ethanol”.
